Assay results published in PMC10165273, “Itch receptor MRGPRX4 interacts with the receptor activity–modifying proteins” (The Journal of Biological Chemistry, 2023).

Target: T1, MRGPRX4 (Homo sapiens, UniProt Q96LA9)
T1 construct: expressed in transfected cells; host or cells: HEK293T
Assay: BRET2 β-arrestin2 recruitment to MRGPRX4
Type: cell-based
Conditions: 100 μM agonist (Fig. 5B, C)
Excerpt: The method for homogenous transfection of β-Arrestin and BRET^2 assay of β-Arrestin recruitment has been described previously ([51]). […] BRET^2 measurements were taken on the BioTek Synergy NEO2 microplate reader.
For MRGPRX4 DNA titration assays, HEK293T cells were cotransfected with either β-Arrestin1 or β-Arrestin2 with increasing amounts of MRGPRX4 (0.5, 1, or 2 pg/cell).
To measure the time-course of β-Arrestin2 recruitment to MRGPRX4 and CALCRL, the transfection and general procedure described above was followed, with the modification that Prolume Purple was added first, followed by addition of the appropriate agonists ([51]).
The BRET ratio for each sample was determined by calculating the ratio of the light intensity emitted by the GFP10 (515 nm) (acceptor) over the light intensity emitted by the RLuc3 (395 nm) (donor). Net BRET^2 was determined by subtracting the basal BRET^2 (β-arrestin-RLuc3 only) signal from the BRET^2 signals. All BRET values were normalized to the MRGPRX4-only condition.

T1 sequence (Q96LA9 whole entry): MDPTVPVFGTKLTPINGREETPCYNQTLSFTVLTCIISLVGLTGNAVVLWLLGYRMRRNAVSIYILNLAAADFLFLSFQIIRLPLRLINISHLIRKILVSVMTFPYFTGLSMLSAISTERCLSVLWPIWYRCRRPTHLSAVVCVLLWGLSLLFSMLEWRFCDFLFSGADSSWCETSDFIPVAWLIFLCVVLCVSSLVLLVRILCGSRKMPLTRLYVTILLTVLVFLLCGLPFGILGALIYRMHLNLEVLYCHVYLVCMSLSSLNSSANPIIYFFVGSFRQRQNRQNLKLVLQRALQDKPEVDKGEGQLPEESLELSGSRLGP

In the case of C[C@H](CCC(=O)O)[C@H]1CC[C@H]2[C@@H]3CC[C@@H]4C[C@H](O)CC[C@]4(C)[C@H]3C[C@H](O)[C@]12C [DCA, deoxycholic acid], the “β-arrestin2 recruitment to MRGPRX4” value is reported as “did not observe any β-arrestin2 recruitment”.
